How the values were obtained:
[1] = tested on: MPTP-behandelten Pinselohräffchen; assay: Experimental Parkinson syndrome induced by the neurotoxin MPTP in marmosets; type: in vivo
Procedure: In gleicher Weise wurden die erfindungsgemäßen Verbindungen am Pinselohräffchen untersucht, bei denen durch das Neurotoxin MPTP ein experimentelles Parkinsonsyndrom erzeugt wurde.
Im gleichen Modell wurde CPP (0.1, 0.39, 1.56 mg/kg i.p.) mit den direkten Dopaminagonisten Apomorphin (0.05 mg/kg i.p. ) oder Lisurid (0.1 mg/kg i.p. ) geprüft (Abb. 3 und 4).

[2] = tested on: unilateral Substantia nigralädierten Ratten; assay: Induction of contralateral rotations in rats with unilateral 6-OHDA lesion of the substantia nigra (automated rotometer); type: in vivo, Wistar-Ratten
Procedure: Die erfindungsgemäße Wirkung wird am Beispiel des CPP dargestellt: Auslösung von kontralateralen Rotationen an unilateral Substantia nigralädierten Ratten. Männliche Wistar-Ratten wurden 8 Monate vor dem Experiment durch Injektion von 16 µg 6-Hydroxydopamin (6-OHDA) in die linke Substantia nigra lädiert. Die Messung der Rotationen erfolgte in automatisierten Rotometern. Die Tiere wurden in Plexiglas-Halbschalen (Durchmesser 40 cm) gesetzt und mechanisch mit einem Winkelschrittgeber verbunden. Die Bewegungen mit und entgegen dem Uhrzeigersinn wurden getrennt in 10-Minuten-Intervallen für 2 Stunden erfasst.
Die Ergebnisse dieser Versuche lassen sich wie folgt zusammenfassen: Die mit Lösungsmitteln behandelten Tiere zeigen kaum spontane Rotationen.

O=C(O)C1CN(CCCP(=O)(O)O)CCN1 (racemic) [CPP, 3-((±)-2-carboxy-piperazin-4-yl)-propyl-1-phosphonsäure]
Wirkung von L-Dopa und Benserazid ([1]; CPP 0,1, 0,39, 1,56 mg/kg i.p. added to L-Dopa 20 mg/kg i.p. + Benserazid 20 mg/kg i.p., Abb. 2): dosisabhängig verstärkt
kombinierte Behandlung mit Apomorphin ([1]; CPP 0.1, 0.39, 1.56 mg/kg i.p. with Apomorphin 0.05 mg/kg i.p., analysis of variance and Tukey test, p < 0.0.1, Abb. 3 und 4): signifikantem Synergismus
kombinierte Behandlung mit Lisurid ([1]; CPP 0.1, 0.39, 1.56 mg/kg i.p. with Lisurid 0.1 mg/kg i.p., analysis of variance and Tukey test, p < 0.0.1, Abb. 3 und 4): signifikantem Synergismus
durch L-Dopa induzierte Rotationen ([2]; CPP 0,025, 0,39, 1,56 and 6,25 mg/kg i.p. added to L-Dopa 25 mg/kg i.p. + Benserazid 100 mg/kg i.p., Abb. 1): dosisabhängig verstärkt
Zahl der Rotationen in 2 Stunden ([2]; highest dose of CPP (6,25 mg/kg i.p.) plus L-Dopa + Benserazid, compared with L-Dopa treatment, Abb. 1): signifikant von der L-Dopa Behandlung verschieden

N[C@@H](Cc1ccc(O)c(O)c1)C(=O)O [L+Dopa]
Rotationsbewegungen ([2]; L+Dopa 25 mg/kg i.p. and Benserazid 100 mg/kg i.p., without CPP, 6-OHDA-lesioned rats): leichte Rotationsbewegungen
